Assay results: patent US9085555B2, “Complement pathway modulators and uses thereof” (priority 2011, dated 2015)

The compounds below were run against Factor D (Homo sapiens (Human), UniProt P00746) (assay: biochemical). Settings: read-out: IC50.
Type: biochemical

Chain of Factor D (P00746 26-253): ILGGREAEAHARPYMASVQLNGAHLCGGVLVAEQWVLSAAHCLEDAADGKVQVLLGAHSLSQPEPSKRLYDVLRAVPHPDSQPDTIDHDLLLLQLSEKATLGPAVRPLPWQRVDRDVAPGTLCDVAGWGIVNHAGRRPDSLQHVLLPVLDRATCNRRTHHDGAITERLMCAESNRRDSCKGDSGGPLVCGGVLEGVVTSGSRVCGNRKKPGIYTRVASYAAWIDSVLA

SMILES	IC50 [nM]
NC(=O)c1nn(CC(=O)N2C[C@H](F)C[C@H]2C(=O)Nc2cccc(Br)n2)c2ccccc12 [Example 739, 1-{2-[(2S,4R)-2-(6-Bromo-pyridin-2-ylcarbamoyl)-4-fluoro-pyrrolidin-1-yl]-2-oxo-ethyl}-1H-indazole-3-carboxylic acid amide]	23
CC(=O)c1nn(CC(=O)N2[C@@H]3C[C@@H]3C[C@H]2C(=O)Nc2cccc(Br)n2)c2ccncc12 [Example 740, (1R,3S,5R)-2-[2-(3-Acetyl-pyrazolo[4,3-c]pyridin-1-yl)-acetyl]-2-aza-bicyclo[3.1.0] hexane-3-carboxylic acid (6-bromo-pyridin-2-yl)-amide]	13
NC(=O)c1nn(CC(=O)N2[C@@H]3C[C@@H]3C[C@H]2C(=O)Nc2nc(Br)cs2)c2ccccc12 [Example 742, 1-{2-[(1R,3S,5R)-3-(4-Bromo-thiazol-2-ylcarbamoyl)-2-aza-bicyclo[3.1.0]hex-2-yl]-2-oxo-ethyl}-1H-indazole-3-carboxylic acid amide]	37
Cc1cc2c(C(N)=O)nn(CC(=O)N3[C@@H]4C[C@@H]4C[C@H]3C(=O)Nc3cccc(Br)n3)c2c(C)n1 [Example 743, 1-{2-[(1R,3S,5R)-3-(6-Bromo-pyridin-2-ylcarbamoyl)-2-aza-bicyclo[3.1.0]hex-2-yl]-2-oxo-ethyl}-5,7-dimethyl-1H-pyrazolo[3,4-c]pyridine-3-carboxylic acid amide]	5
C[C@@]12C[C@@H](C(=O)Nc3cccc(Br)n3)N(C(=O)Cn3nc(C(N)=O)c4ccccc43)[C@@H]1C2 [Example 744, 1-{2-[(1R,3S,5R)-3-(6-Bromo-pyridin-2-ylcarbamoyl)-5-methyl-2-aza-bicyclo[3.1.0]hex-2-yl]-2-oxo-ethyl}-1H-indazole-3-carboxylic acid amide]	4
Cc1cc2c(C(N)=O)nn(CC(=O)N3[C@H](C(=O)Nc4cccc(Br)n4)C[C@@]4(C)C[C@@H]34)c2cn1 [Example 745, 1-{2-[(1R,3S,5R)-3-(6-Bromo-pyridin-2-ylcarbamoyl)-5-methyl-2-aza-bicyclo[3.1.0]hex-2-yl]-2-oxo-ethyl}-5-methyl-1H-pyrazolo[3,4-c]pyridine-3-carboxylic acid amide]	5
NC(=O)c1nn(CC(=O)N2C[C@H]3C[C@H]3[C@H]2C(=O)Nc2cccc(Br)n2)c2ccccc12 [Example 746, 1-{2-[(1R,2S,5S)-2-(6-Bromo-pyridin-2-ylcarbamoyl)-3-aza-bicyclo[3.1.0]hex-3-yl]-2-oxo-ethyl}-1H-indazole-3-carboxylic acid amide]	7
Cc1nccc2c(C(N)=O)nn(CC(=O)N3[C@@H]4C[C@@H]4C[C@H]3C(=O)Nc3cccc(Br)n3)c12 [Example 747, 1-{2-[(1R,3S,5R)-3-(6-Bromo-pyridin-2-ylcarbamoyl)-2-aza-bicyclo[3.1.0]hex-2-yl]-2-oxo-ethyl}-7-methyl-1H-pyrazolo [3,4-c]pyridine-3-carboxylic acid amide]	13
CC(=O)c1nn(CC(=O)N2[C@@H]3C[C@@H]3C[C@H]2C(=O)Nc2cccc(Br)n2)c2ccc(OCc3ncccn3)cc12 [Example 748, (1R,3S,5R)-2-{2-[3-Acetyl-5-(pyrimidin-2-ylmethoxy)-indazol-1-yl]-acetyl}-2-aza-bicyclo[3.1.0]hexane-3-carboxylic acid (6-bromo-pyridin-2-yl)-amide]	4
NC(=O)c1nn(CC(=O)N2[C@@H]3C[C@@H]3C[C@H]2C(=O)Nc2cccc(Br)n2)c2cc(Cl)ccc12 [Example 749, 1-{2-[(1R,3S,5R)-3-(6-Bromo-pyridin-2-ylcarbamoyl)-2-aza-bicyclo[3.1.0]hex-2-yl]-2-oxo-ethyl}-6-chloro-1H-indazole-3-carboxylic acid amide]	4
CC(=O)c1cn(CC(=O)N2[C@@H]3C[C@@H]3C[C@H]2C(=O)Nc2cccc(Br)n2)c2ncccc12 [Example 750, (1R,3S,5R)-2-[2-(3-Acetyl-pyrrolo[2,3-b]pyridin-1-yl)-acetyl]-2-aza-bicyclo[3.1.0] hexane-3-carboxylic acid (6-bromo-pyridin-2-yl)-amide]	34
CC(=O)c1cn(CC(=O)N2[C@@H]3C[C@@H]3C[C@H]2C(=O)Nc2cccc(Br)n2)c2ccncc12 [Example 751, (1R,3S,5R)-2-[2-(3-Acetyl-pyrrolo[3,2-c]pyridin-1-yl)-acetyl]-2-aza-bicyclo[3.1.0] hexane-3-carboxylic acid (6-bromo-pyridin-2-yl)-amide]	81
CC(=O)c1cn(CC(=O)N2[C@@H]3C[C@@H]3C[C@H]2C(=O)Nc2cccc(Br)n2)c2nnccc12 [Example 752, (1R,3S,5R)-2-[2-(5-Acetyl-pyrrolo[2,3-c]pyridazin-7-yl)-acetyl]-2-aza-bicyclo[3.1.0] hexane-3-carboxylic acid (6-bromo-pyridin-2-yl)-amide]	95
CO[C@H]1[C@@H](C(=O)Nc2cccc(Br)n2)N(C(=O)Cn2nc(C(N)=O)c3ccccc32)C[C@@H]1F [Example 754, 1-{2-[(2S,3S,4S)-2-(6-Bromo-pyridin-2-ylcarbamoyl)-4-fluoro-3-methoxy-pyrrolidin-1-yl]-2-oxo-ethyl}-1H-indazole-3-carboxylic acid amide]	5
CO[C@H]1[C@@H](C(=O)Nc2cccc(Br)c2F)N(C(=O)Cn2nc(C(N)=O)c3ccccc32)C[C@@H]1F [Example 755, 1-{2-[(2S,3S,4S)-2-(3-Bromo-2-fluoro-phenylcarbamoyl)-4-fluoro-3-methoxy-pyrrolidin-1-yl]-2-oxo-ethyl}-1H-indazole-3-carboxylic acid amide]	17
CO[C@H]1[C@@H](C(=O)Nc2cccc(Br)n2)N(C(=O)Cn2nc(C(C)=O)c3ccccc32)C[C@@H]1F [Example 756, (2S,3S,4S)-1-[2-(3-Acetyl-indazole-1-yl)-acetyl]-4-fluoro-3-methoxy-pyrrolidine-2-carboxylic acid (6-bromo-pyridin-2-yl)-amide]	7
CC(=O)c1nn(CC(=O)N2[C@@H]3C[C@@H]3C[C@H]2C(=O)Nc2cncc(Br)n2)c2ccccc12 [Example 757, (1R,3S,5R)-2-[2-(3-Acetyl-indazol-1-yl)-acetyl]-2-aza-bicyclo[3.1.0]hexane-3-carboxylic acid (6-bromo-pyrazin-2-yl)-amide]	3
NC(=O)c1nn(CC(=O)N2[C@H](C(=O)Nc3cccc(OC(F)(F)F)c3F)C[C@@]3(CO)C[C@@H]23)c2ccccc12 [Example 758, 1-{2-[(1R,3S,5S)-3-(2-Fluoro-3-trifluoromethoxy-phenylcarbamoyl)-5-hydroxymethyl-2-aza-bicyclo[3.1.0]hex-2-yl]-2-oxo-ethyl}-1H-indazole-3-carboxylic acid amide]	64
NC(=O)c1nn(CC(=O)N2[C@H](C(=O)Nc3cccc(Br)c3F)C[C@@]3(CO)C[C@@H]23)c2ccccc12 [Example 759, 1-{2-[(1R,3S,5S)-3-(3-Bromo-2-fluoro-phenylcarbamoyl)-5-hydroxymethyl-2-aza-bicyclo[3.1.0]hex-2-yl]-2-oxo-ethyl}-1H-indazole-3-carboxylic acid amide]	9
NC(=O)c1nn(CC(=O)N2[C@H](C(=O)Nc3cccc(Br)n3)C[C@@]3(CO)C[C@@H]23)c2ccccc12 [Example 760, 1-{2-[(1R,3S,5S)-3-(6-Bromo-pyridin-2-ylcarbamoyl)-5-hydroxymethyl-2-aza-bicyclo[3.1.0]hex-2-yl]-2-oxo-ethyl}-1H-indazole-3-carboxylic acid amide]	12
NC(=O)n1cc(NC(=O)N2C[C@H]3C[C@H]3[C@H]2C(=O)Nc2cccc(Br)n2)c2ccccc21 [Example 763, (1R,2S,5S)-3-Aza-bicyclo[3.1.0]hexane-2,3-dicarboxylic acid 2-[(6-bromo-pyridin-2-yl)-amide]3-[(1-carbamoyl-1H-indol-3-yl)-amide]]	14
NC(=O)n1cc(NC(=O)N2C[C@H](F)C[C@H]2C(=O)Nc2cccc(Br)n2)c2ccccc21 [Example 764, (2S,4R)-4-Fluoro-pyrrolidine-1,2-dicarboxylic acid 2-[(6-bromo-pyridin-2-yl)-amide]1-[(1-carbamoyl-1H-indol-3-yl)-amide]]	4
CCOC(=O)[C@H](CC1CCCCC1)NC(=O)[C@@H]1C[C@H]2C[C@H]2N1C(=O)Cn1nc(C(C)=O)c2cccnc21 [Example 765]	211
COC(=O)[C@H](CC(C)C)NC(=O)[C@@H]1C[C@H]2C[C@H]2N1C(=O)Cn1nc(C(C)=O)c2cccnc21 [Example 766, (S)-2-({(1R,3S,5R)-2-[2-(3-Acetyl-pyrazolo[3,4-b]pyridin-1-yl)-acetyl]-2-aza-bicyclo[3.1.0]hexane-3-carbonyl}-amino)-4-methyl-pentanoic acid methyl ester]	216
COC(=O)C(CCC(F)(F)F)NC(=O)[C@@H]1C[C@H]2C[C@H]2N1C(=O)Cn1nc(C(C)=O)c2cccnc21 (stereo partly drawn) [Example 767, 2-({(1R,3S,5R)-2-[2-(3-Acetyl-pyrazolo[3,4-b]pyridin-1-yl)-acetyl]-2-aza-bicyclo[3.1.0]hexane-3-carbonyl}-amino)-5,5,5-trifluoro-pentanoic acid methyl ester]	346
CC(=O)c1nn(CC(=O)N2[C@@H]3C[C@@H]3C[C@H]2C(=O)Nc2nccc(C(F)(F)F)n2)c2ncccc12 [Example 769, (1R,3S,5R)-2-[2-(3-Acetyl-pyrazolo[3,4-b]pyridin-1-yl)-acetyl]-2-aza-bicyclo[3.1.0]hexane-3-carboxylic acid (4-trifluoromethyl-pyrimidin-2-yl)-amide]	378
COCCOc1ccc2c(c1)c(C(C)=O)nn2CC(=O)N1[C@@H]2C[C@@H]2C[C@H]1C(=O)Nc1cccc(OC(F)(F)F)c1F [Example 770, (1R,3S,5R)-2-{2-[3-Acetyl-5-(2-methoxy-ethoxy)-indazol-1-yl]-acetyl}-2-aza-bicyclo[3.1.0]hexane-3-carboxylic acid (2-fluoro-3-trifluoromethoxy-phenyl)-amide]	9
CC(=O)c1nn(CC(=O)N2[C@@H]3C[C@@H]3C[C@H]2C(=O)Nc2cccc(OC(F)(F)F)c2F)c2ccc(OC(C)C#N)cc12 (stereo partly drawn) [Example 771, (1R,3S,5R)-2-{2-[3-Acetyl-5-(cyano-methyl-methoxy)-indazol-1-yl]-acetyl}-2-aza-bicyclo[3.1.0]hexane-3-carboxylic acid (2-fluoro-3-trifluoromethoxy-phenyl)-amide]	8
